Data taken from patent US20100028889A1, “COMPANION DIAGNOSTIC ASSAYS FOR CANCER THERAPY” (ABBOTT LABORATORIES, priority 2006, published 2010).
Like-named read-outs stand apart in the source and are kept apart here.

Assays:
Experiment in all cases: sensitivity of SCLC cell line, procedure of Oltersdorf
Format in all cases: cell-based
DMS 114 = conditions: Homo sapiens, read-out: sensitivity class by EC50
Experimental: (§1) The following SCLC cell lines were obtained from ATCC (Manassis, Va.): NCI-H889, NCI-H1963, NCI-H1417, NCI-H146, NCI-H187, DMS53, NCI-H510, NCI-H209, NCI-H211, NCI-H345, NCI-H524, NCI-H69, DMS79, SHP77, NCI-H1688, NCI-H446, NCI-H740, NCI-H1048, NCI-H82, NCI-H196, SW1271, H69AR, NCI-H526, NCI-H865, NCI-H748, NCI-H711, and DMS114. All cells were cultured in the ATCC recommended media at 37° C. in a humidified atmosphere containing 5% CO2. The following leukemia and lymphoma cell lines were obtained from ATCC (Manassis, Va.): MV-4-11, RS4;11, Loucy, KG-1A, DOHH2, Rs11380, CCRF-HSB-2, CCRF-CEM, CEM/C1, Reh, SUP-B15, MOLT-4, SUDHL4, HL-60, RPMI 8226, A3, Daudi, WSU-NHL, Pfeiffer, Jurkat I 9.2, Jurkat, MEG-01, U-937, K-562, and Raji.
(§2) The 27 SCLC cell lines were tested for sensitivity to ABT-737 using the procedure described in Oltersdorf, T., “An inhibitor of Bcl-2 family proteins induces regression of solid tumours”, Nature, 435: 677-681, 2005, with a cell line classified as sensitive if its EC50<5 μM and as resistant if its EC50>5 µM. The sensitive cell line group consisted of NCI-H889, NCI-H1963, NCI-H1417, NCI-H146, DMS 53, NCI-H187, NCI-H510, NCI-H209, NCI-H345, NCI-H526, NCI-H211, NCI-H865, NCI-H524, NCI-H748, DMS 79, NCI-H69, NCI-H711, SHP 77, NCI-H1688, and the resistant cell line group was comprised of NCI-H446, NCI-H740, NCI-H1048, NCI-H82, NCI-H196, SW1271, DMS 114, and NCI-H69AR.
(§3) The 22 SCLC cell lines were tested for sensitivity to ABT-263 using the procedure described in Oltersdorf, T., “An inhibitor of Bcl-2 family proteins induces regression of solid tumours”, Nature, 435: 677-681, 2005, with a cell line classified as sensitive if its EC50<5 µM and as resistant if its EC50>5 μM. The sensitive cell line group consisted of NCI-H146, NCI-H889, NCI-H1963, NCI-H187, NCI-H1417, NCI-H211, NCI-H69, NCI-H209, NCI-H510, DMS 53, DMS 79, NCI-H345, NCI-H1048, SHP 77, NCI-H446 and the resistant cell line group was comprised of NCI-H1688, NCI-H740, NCI-H82, NCI-H69AR, SW1271, DMS 114 and NCI-H 196.

DMS 53 = conditions: Homo sapiens, read-out: sensitivity class by EC50
Experimental: as §1, §2, §3

DMS 79 = conditions: Homo sapiens, read-out: sensitivity class by EC50
Experimental: as §1, §2, §3

NCI-H1048 = conditions: Homo sapiens, read-out: sensitivity class by EC50
Experimental: as §1, §2, §3

NCI-H1417 = conditions: Homo sapiens, read-out: sensitivity class by EC50
Experimental: as §1, §2, §3

NCI-H146 = conditions: Homo sapiens, read-out: sensitivity class by EC50
Experimental: as §1, §2, §3

NCI-H1688 = conditions: Homo sapiens, read-out: sensitivity class by EC50
Experimental: as §1, §2, §3

NCI-H187 = conditions: Homo sapiens, read-out: sensitivity class by EC50
Experimental: as §1, §2, §3

NCI-H1963 = conditions: Homo sapiens, read-out: sensitivity class by EC50
Experimental: as §1, §2, §3

NCI-H196 = conditions: Homo sapiens
Experimental: as §1, §2, §3

NCI-H209 = conditions: Homo sapiens, read-out: sensitivity class by EC50
Experimental: as §1, §2, §3

NCI-H211 = conditions: Homo sapiens, read-out: sensitivity class by EC50
Experimental: as §1, §2, §3

NCI-H345 = conditions: Homo sapiens, read-out: sensitivity class by EC50
Experimental: as §1, §2, §3

NCI-H446 = conditions: Homo sapiens, read-out: sensitivity class by EC50
Experimental: as §1, §2, §3

NCI-H510 = conditions: Homo sapiens, read-out: sensitivity class by EC50
Experimental: as §1, §2, §3

NCI-H69AR = conditions: Homo sapiens, read-out: sensitivity class by EC50
Experimental: as §1, §2, §3

NCI-H69 = conditions: Homo sapiens, read-out: sensitivity class by EC50
Experimental: as §1, §2, §3

NCI-H740 = conditions: Homo sapiens, read-out: sensitivity class by EC50
Experimental: as §1, §2, §3

NCI-H82 = conditions: Homo sapiens, read-out: sensitivity class by EC50
Experimental: as §1, §2, §3

NCI-H889 = conditions: Homo sapiens, read-out: sensitivity class by EC50
Experimental: as §1, §2, §3

SHP 77 = conditions: Homo sapiens, SHP77, read-out: sensitivity class by EC50
Experimental: as §1, §2, §3

SW1271 = conditions: Homo sapiens, read-out: sensitivity class by EC50
Experimental: as §1, §2, §3

EC50 (DMS 114) | EC50 (DMS 53) | EC50 (DMS 79) | EC50 (NCI-H1048) | EC50 (NCI-H1417) | EC50 (NCI-H146) | EC50 (NCI-H1688) | EC50 (NCI-H187) | EC50 (NCI-H1963) | EC50 (NCI-H209) | EC50 (NCI-H211) | EC50 (NCI-H345) | EC50 (NCI-H446) | EC50 (NCI-H510) | EC50 (NCI-H69AR) | EC50 (NCI-H69) | EC50 (NCI-H740) | EC50 (NCI-H82) | EC50 (NCI-H889) | EC50 (SHP 77) | Structure (SMILES) | also measured
> 5 µM | < 5 µM | < 5 µM | < 5 µM | < 5 µM | < 5 µM | > 5 µM | < 5 µM | < 5 µM | < 5 µM | < 5 µM | < 5 µM | < 5 µM | < 5 µM | > 5 µM | < 5 µM | > 5 µM | > 5 µM | < 5 µM | < 5 µM | CC1(C)CCC(c2ccc(Cl)cc2)=C(CN2CCN(c3ccc(C(=O)NS(=O)(=O)c4ccc(N[C@H](CCN5CCOCC5)CSc5ccccc5)c(S(=O)(=O)C(F)(F)F)c4)cc3)CC2)C1 [ABT-263, N-(4-(4-((2-(4-chlorophenyl)-5,5-dimethyl-1-cyclohex-1-en-1-yl)methyl)piperazin-1-yl)benzoyl)-4-(((1R)-3-(morpholin-4-yl)-1-((phenylsulfanyl)methyl)propyl)amino)-3-((trifluoromethyl)sulfonyl)benzenesulfonamide] | EC50 (NCI-H196; NCI-H 196, read-out: sensitivity class by EC50): > 5 µM; EC50 (SW1271): > 5 µM
> 5 µM | < 5 µM | < 5 µM | > 5 µM | < 5 µM | < 5 µM | < 5 µM | < 5 µM | < 5 µM | < 5 µM | < 5 µM | < 5 µM | > 5 µM | < 5 µM | > 5 µM | < 5 µM | > 5 µM | > 5 µM | < 5 µM | < 5 µM | CN(C)CC[C@H](CSc1ccccc1)Nc1ccc(S(=O)(=O)NC(=O)c2ccc(N3CCN(Cc4ccccc4-c4ccc(Cl)cc4)CC3)cc2)cc1[N+](=O)[O-] [ABT-737, N-(4-(4-((4′-chloro(1,1′-biphenyl)-2-yl)methyl)piperazin-1-yl)benzoyl)-4-(((1R)-3-(dimethylamino)-1-((phenylsulfanyl)methyl)propyl)amino)-3-nitrobenzenesulfonamide] | EC50 (NCI-H196; read-out: sensitivity class by EC50): > 5 µM; EC50 (SW1271): > 5 µM
